# In patent US4108857A, “Imidazolylmethyl methanobenzazocines” (Sterling Drug Inc., priority 1977, dated 1978):
# Counter-ions that a name gives are not always drawn.
# How the values were obtained:
# [1] = test system: maximal electroshock seizures; experiment: anti-maximal electroshock seizure test in mice; type: in vivo
# Protocol: The preferred species of this invention, i.e. the compounds having in free base form Formula II, are useful as analgesic agents administered orally or parenterally to humans. […] In the anti-maximal electroshock seizure test, the compounds were administered intraperitoneally or perorally 30 or 90 minutes prior to the application of 50 milliamperes of alternating current through corneal electrodes. Shock duration was 0.3 second. The criterion for anticonvulsant activity was the absence of the tonic hind leg extensor component of the seizure. In the anti-maximal pentylenetetrazol seizure test, the compounds were given intraperitoneally 30 or 90 minutes prior to the rapid intravenous injection of 50 mg. per kg. of pentylenetetrazol. Failure to display tonic hind leg extensor seizures was again the criterion for drug action. Representative results, expressed as ED50 (mg./kg.), which were obtained with my new compounds in these two tests are as follows: […]
# [2] = test system: maximal pentylenetetrazol seizures; experiment: anti-maximal pentylenetetrazol seizure test in mice; type: in vivo; conditions: for ED50: Mus musculus
# pH of solution = type: physicochemical; conditions: for pH of 1 percent aqueous solution: 1 percent solution (Example 26 as dihydrochloride, Example 32 as such, others as hydrochloride)
# [3] = precipitation on diluting ethyl alcohol solution with four volumes of water; type: physicochemical; conditions: 5 percent (w/v) solution in 95 percent ethyl alcohol
# [4] = solubility in water or aqueous acid; conditions: for solubility: water
# [5] = solubility in 95 percent ethyl alcohol; conditions: for solubility: 95% ethanol, organic solvent or mixture
# [6] = precipitation on gradual pH adjustment of the aqueous solution; type: physicochemical; conditions: for pH at which a precipitate formed: addition of N/10 sodium hydroxide solution to aqueous solution of hydrochloride; for precipitation on adjusting to pH 7.0: 1 percent solution
# mice = experiment: inclined screen test in mice (skeletal muscle relaxation); type: in vivo; conditions: 100 mg./kg. subcutaneously, mice
# humans = experiment: analgesic use in humans; type: in vivo
# Protocol: For example, administered orally, the effective dosage of the racemic cis form of this compound in humans has been determined to be about 0.1 to 0.5 mg. of drug per kg. of body weight per day, at 5-25 mg. per dose; preferably about 0.2 to 0.4 mg./kg./day, for instance a total of […] at 20 mg./dose.
# [7] = one entry spanning PO 30' and 90'
smiles,measurement,setting,value
"CC1[C@@H]2Cc3ccccc3[C@@]1(C)CCN2CC1CCC1 (mixture of isomers) [Example 4, racemic 1,2,3,4,5,6-hexahydro-3-cyclobutylmethyl-cis-6,11-dimethyl-2,6-methano-3-benzazocine]",Anti-Maximal Electroshock ED50,"[1]; IP, 30', 30 min",30.5 ± 5.8 mg/kg
same,Anti-Maximal Electroshock ED50,"[1]; IP, 90'",INACT.
same,Anti-Maximal Electroshock ED50,[1]; [7],inact.
same,Anti-Maximal Pentylenetetrazol ED50,"[2]; IP, 30', 30 min",13.2 ± 3 mg/kg
same,Anti-Maximal Pentylenetetrazol ED50,"[2]; IP, 90', 90 min",26.2 ± 8.1 mg/kg
same,Anti-Maximal Pentylenetetrazol ED50,"[2]; PO, 30'",INACT.
same,Anti-Maximal Pentylenetetrazol ED50,"[2]; PO, 90', 90 min",25.8 ± 7 mg/kg
same,pH of ethyl alcohol solution diluted with four volumes of water,"pH of solution; hydrochloride, 5 percent (w/v) in 95 percent ethyl alcohol, then diluted",6.1
same,precipitation on dilution with four volumes of water,[3],no precipitate formed
same,solubility of hydrochloride in water,[4]; hydrochloride,less than 0.25%
same,solubility of hydrochloride in 95 percent ethyl alcohol,[5],5 percent (w/v)
"C[C@@H]1[C@H]2Cc3ccccc3[C@]1(C)CCN2CC1CC1 (relative stereo) [Example 2, racemic 1,2,3,4,5,6-hexahydro-3-cyclopropylmethyl-trans-6,11-dimethyl-2,6-methano-3-benzazocine]",solubility,[4],< 2.5 mg/mL
same,solubility,[5],< 10 mg/mL
"CC[C@]12CCN(CC3CC3)[C@H](Cc3ccccc31)[C@@H]2C (relative stereo) [Example 3, 1,2,3,4,5,6-hexahydro-3-cyclopropylmethyl-cis-(6-ethyl-11-methyl)-2,6-methano-3-benzazocine]",pH of 1 percent aqueous solution,pH of solution,5.6
same,pH at which a precipitate formed,[6],6.5
same,solubility,[4],200 mg/mL
"C[C@H]1[C@H]2Cc3ccccc3[C@]1(C)CCN2CC1CC(C)(C)C1 (relative stereo) [Example 5, racemic 1,2,3,4,5,6-hexahydro-3-(3,3-dimethylcyclobutylmethyl)-cis-6,11-dimethyl-2,6-methano-3-benzazocine]",pH of 0.5 percent aqueous solution,"pH of solution; hydrochloride, 0.5 percent",6.8
same,pH at which a precipitate formed,[6],6.8
same,precipitation on dilution with four volumes of water,[3],a precipitate formed
same,solubility,[4],5 mg/mL
same,solubility,[5],50 mg/mL
"C[C@H]1[C@H]2Cc3ccccc3[C@]1(C)CCN2CC1CCCC1 (relative stereo) [Example 6, racemic 1,2,3,4,5,6-hexahydro-3-cyclopentylmethyl-cis-6,11-dimethyl-2,6-methano-3-benzazocine]",Anti-Maximal Electroshock ED50,"[1]; one entry spanning PO and IP, 30' and 90'",INACTIVE
same,ED50,"[2]; 0.5 h, IP, 30'",11.7 ± 2 mg/kg
same,ED50,"[2]; 1.5 h, IP, 90'",8 ± 3 mg/kg
same,Anti-Maximal Pentylenetetrazol ED50,[2]; [7],INACTIVE
same,pH of 1 percent aqueous solution,pH of solution,6.2
same,pH at which a precipitate formed,[6],6.3
same,solubility,[4],10 mg/mL
"CC(C)=CCN1CC[C@@]2(C)c3ccccc3C[C@@H]1[C@@H]2C (relative stereo) [Example 10, racemic 1,2,3,4,5,6-hexahydro-3-(3-methyl-2-butenyl)-cis-6,11-dimethyl-2,6-methano-3-benzazocine]",pH of 1 percent aqueous solution,pH of solution,6.1
same,precipitation on adjusting to pH 7.0,[6]; N/10 sodium hydroxide solution,no precipitate was formed
same,solubility,[4],200 mg/mL
"C[C@H]1[C@H]2Cc3ccccc3[C@]1(C)CCN2CCC(=O)O (relative stereo) [Example 24, racemic 1,2,3,4,5,6-hexahydro-3-(2-carboxyethyl)-cis-6,11-dimethyl-2,6-methano-3-benzazocine hydrochloride]",pH of 1 percent aqueous solution,pH of solution,3.0
same,precipitation on adjusting to pH 7.0,[6]; N/10 sodium hydroxide solution,no precipitate formed
same,solubility,[4],100 mg/mL
"C[C@H]1[C@H]2Cc3ccccc3[C@]1(C)CCN2CCCN (relative stereo) [Example 26, racemic 1,2,3,4,5,6-hexahydro-3-(3-aminopropyl)-cis-6,11-dimethyl-2,6-methano-3-benzazocine]",pH of 1 percent aqueous solution,pH of solution,6.6
same,precipitation on adjusting to pH 7.0,[6]; N/10 sodium hydroxide solution,no precipitate was formed
same,solubility,[4],200 mg/mL
"C[C@H]1[C@H]2Cc3ccccc3[C@]1(C)CCN2CCc1c[nH]c2ccccc12 (relative stereo) [Example 30, racemic 1,2,3,4,5,6-hexahydro-3-[2-(3-indolyl)ethyl]-cis-6,11-dimethyl-2,6-methano-3-benzazocine]",solubility,[4],< 2.5 mg/mL
same,solubility of hydrochloride in 95 percent ethyl alcohol,[5],less than one
"CCCCNC(=O)N1CC[C@@]2(C)c3ccccc3C[C@@H]1[C@@H]2C (relative stereo) [Example 32, racemic 1,2,3,4,5,6-hexahydro-3-(n-butylcarbamyl)-cis-6,11-dimethyl-2,6-methano-3-benzazocine]",pH of 1 percent aqueous solution,pH of solution,9.2
same,precipitation on adjusting to pH 7.0,[6]; N/10 hydrochloric acid solution,no precipitate was formed
same,solubility,[4],200 mg/mL
"C[C@H]1[C@H]2Cc3ccccc3[C@]1(C)CCN2C(=O)c1cccnc1 (relative stereo) [Example 34, racemic 1,2,3,4,5,6-hexahydro-3-nicotinoyl-cis-6,11-dimethyl-2,6-methano-3-benzazocine]",pH of 1 percent aqueous solution,pH of solution,2.7
same,pH at which a precipitate formed,[6],3.0
same,solubility,[4],200 mg/mL
"C[C@H]1[C@H]2Cc3ccccc3[C@]1(C)CCN2Cc1cncn1C (relative stereo) [Example 37, racemic 1,2,3,4,5,6-hexahydro-3-(1-methylimidazol-5-yl)methyl-cis-6,11-dimethyl-2,6-methano-3-benzazocine]",side-effect in the inclined screen test,mice,CNS stimulation
same,skeletal muscle relaxant activity in the inclined screen test,mice; 30 or 60 minutes,active
same,precipitation on dilution with four volumes of water,[3],precipitated
same,solubility,[4],< 2.5 mg/mL
same,solubility,[5],50 mg/mL
"COC(CN1CC[C@@]2(C)c3ccccc3C[C@@H]1[C@@H]2C)OC (relative stereo) [Example 39, racemic 1,2,3,4,5,6-hexahydro-3-(2,2-dimethoxyethyl)cis-6,11-dimethyl-2,6-methano-3-benzazocine]",pH of 1 percent aqueous solution,pH of solution,5.9
same,precipitation on adjusting to pH 7.0,[6]; N/10 sodium hydroxide solution,no precipitate formed
same,solubility,[4],200 mg/mL
"CC[C@H]1[C@H]2Cc3ccccc3[C@]1(C)CCN2C (relative stereo) [racemic 1,2,3,4,5,6-hexahydro-3-methyl-cis-(6-methyl-11-ethyl)-2,6-methano-3-benzazocine]",pH of 1 percent aqueous solution,pH of solution,6.7
same,precipitation on adjusting to pH 7.0,[6]; N/10 sodium hydroxide solution,no precipitate formed
same,solubility,[4],50 mg/mL
"CC1C2Cc3ccc(O)cc3C1(C)CCN2CC1CC1 (stereo not drawn) [1,2,3,4,5,6-hexahydro-3-cyclopropylmethyl-8-hydroxy-6,11-dimethyl-2,6-methano-3-benzazocine, reference compound]",psychotomimetic effects in humans,humans; analgesically effective doses,significant incidence of psychotomimetic effects
same,analgesic activity in humans,humans; humans,potent analgesic
"C[C@H]1[C@H]2Cc3ccccc3[C@]1(C)CCN2CC1CCCO1 (stereo partly drawn) [Example 28, 1,2,3,4,5,6-hexahydro-3-(tetrahydro-2-furylmethyl)-cis-6,11-dimethyl-2,6-methano-3-benzazocine]",solubility,[4],< 2.5 mg/mL
same,solubility,[5],50 mg/mL
